{"source": "paper PMC9403717", "about": "“Ruthenium complexes show potent inhibition of AKR1C1, AKR1C2, and AKR1C3 enzymes and anti-proliferative action against chemoresistant ovarian cancer cell line” (Frontiers in Pharmacology, 2022)", "target": "T1, AKR1C2 (Homo sapiens, UniProt P52895)", "T1 construct": "made in house", "T1 sequence (P52895 1-323)": "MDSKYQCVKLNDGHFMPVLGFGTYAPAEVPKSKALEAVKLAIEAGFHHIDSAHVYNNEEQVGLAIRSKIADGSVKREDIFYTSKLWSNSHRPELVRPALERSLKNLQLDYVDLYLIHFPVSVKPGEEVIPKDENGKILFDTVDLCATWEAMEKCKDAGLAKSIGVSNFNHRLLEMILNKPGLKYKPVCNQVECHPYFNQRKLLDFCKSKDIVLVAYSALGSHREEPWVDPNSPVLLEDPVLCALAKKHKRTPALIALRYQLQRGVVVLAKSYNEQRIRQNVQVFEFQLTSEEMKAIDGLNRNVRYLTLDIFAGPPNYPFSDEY", "test": "Inhibition of recombinant AKR1C2, oxidation of 1-acenaphthenol, progress-curve analysis", "assay_type": "biochemical", "details": "for k+3: irreversible binding of second inhibitor molecule to E-NADH-I; for fold less efficient inhibition of AKR1C2 compared to AKR1C1: from K3 values; for k+2: irreversible binding of second inhibitor molecule to E-NAD-I", "experimental": "To investigate the effect of ten selected ruthenium compounds, we measured their effect on the time course of oxidation of the artificial substrate 1-acenaphtenol by recombinant enzymes AKR1C1–3. The recombinant enzymes AKR1C1–AKR1C3 were prepared as described previously ([Brozic et al., 2006]). Since the artificial substrate is racemic, the oxidation follows a double exponential pattern as described previously ([Traven et al., 2015]). The in vitro catalytic activity of AKR1C1–3 enzymes was determined spectrophotometrically by monitoring the increase in NADH absorbance at 340 nm (ε(λ340) = 6220 M^−1cm^−1) in the presence of the substrate 1-acenaphthenol. Enzymatic reactions (300 µL) were performed in 100 mm potassium phosphate buffer (pH 9.0), 0.005% (v/v) TritonX-114, 5% (v/v) DMSO, containing 2.3 mm NAD^+ and 1-acenaphthenol at final concentrations of 90, 180, and 250 µM for AKR1C1, AKR1C2, and AKR1C3, respectively. A total of 5 µL of a tested compound in DMSO was added to the reaction mixture. The final concentrations of the tested compounds ranged from 1 to 200 μM, depending on the extent of inhibition (Supplementary Data). The reaction was started by adding 15 µL of AKR1C1, AKR1C2, or AKR1C3 dissolved in 1x PBS (pH 7.3) at final concentrations of 0.11, 0.16, and 1.5 µM, respectively. AKR1C1–3 activity was measured at 37°C for 3 h without shaking using a PowerWave XS microplate reader (Biotek; Winooski, VT, United States). Measurements at seven different concentrations were performed in duplicates or triplicates (Supplementary Figures S2). To mechanistically explain all the obtained progress curves for each ruthenium complex on each enzyme by a common reaction scheme, we extended the originally proposed scheme so that the interaction of the ruthenium complex with apo- and holoenzyme was allowed to be rapid and followed by a slow irreversible association of a second ruthenium complex molecule. However, the affinity of the Ru complexes for the apoenzymes was much lower so this part was excluded from the proposed kinetic model for clarity (Figure 4).\nFIGURE 4 Reaction scheme for the oxidation of 1-acenaphtenol by AKR1C1-3 and its inhibition by ruthenium compounds. E represents apoenzyme, E-NAD and E-NADH represent holoenzyme with bound NAD^+ and NADH, respectively. A and B are enantiomers of substrate 1-acenaphtenol. Symbols which include I (ruthenium compound) represent holoenzyme in complex with one or two inhibitor molecules. KNAD, KNADH, and K2-3 are equilibrium constants and k+2–3 are second-order association rate constants for the binding of the second inhibitor molecule to the enzyme. The progress curves for each enzyme in the presence of ruthenium complexes were analyzed by the WEB server ENZO (https://enzo.cmm.ki.si/) designed exactly for such purposes ([Bevc et al., 2011]).", "key": {"[1]": {"details": "AKR1C2, reversible binding to holoenzyme E-NAD, read-out: K2"}, "[2]": {"details": "AKR1C2, reversible binding to holoenzyme E-NADH, read-out: K3"}}, "note": "pKi: −log10 of the molar value. Where two headings read alike, the source gives them in different places.", "data": [{"smiles": "Cc1ccc(C(C)C)cc1.O=C(C=C([O][Ru][Cl])c1ccc(I)cc1)C(F)(F)F", "note": "[Compound 1]", "values": [{"measurement": "k+3", "setting": "AKR1C2", "value": 7.7, "unit": "M⁻¹ s⁻¹"}, {"measurement": "pKi", "setting": "[1]", "value": 3.52}, {"measurement": "pKi", "setting": "[2]", "value": 7.28}, {"measurement": "fold less efficient inhibition of AKR1C2 compared to AKR1C1", "value": 2.5, "unit": "fold"}]}, {"smiles": "C1N2CN3CN1CP(C2)C3.Cc1ccc(C(C)C)cc1.F[P-](F)(F)(F)(F)F.O=C(C=C([O][Ru+])c1ccc(I)cc1)C(F)(F)F", "note": "[Compound 2]", "values": [{"measurement": "k+2", "setting": "AKR1C2", "value": 12.6, "unit": "M⁻¹ s⁻¹"}, {"measurement": "pKi", "setting": "[1]", "value": 4.10}]}, {"smiles": "CN(C)c1ccc(C(=CC(=O)C(F)(F)F)[O][Ru][Cl])cc1.Cc1ccc(C(C)C)cc1", "note": "[Compound 3, (η^6-p-cymene)chlorido(4,4,4-trifluoro-1-(4-(dimethylamino)phenyl)-1,3-butandionato)ruthenium(II)]", "values": [{"measurement": "k+2", "setting": "AKR1C2", "value": 7.4, "unit": "M⁻¹ s⁻¹"}, {"measurement": "k+3", "setting": "AKR1C2", "value": 55.4, "unit": "M⁻¹ s⁻¹"}, {"measurement": "pKi", "setting": "[1]", "value": 3.80}, {"measurement": "pKi", "setting": "[2]", "value": 5.95}, {"measurement": "fold less efficient inhibition of AKR1C2 compared to AKR1C1", "value": 26, "unit": "fold"}]}, {"smiles": "Cc1ccc(C(C)C)cc1.O=C(C=C([O][Ru][Cl])c1ccc2c(c1)OCO2)C(F)(F)F", "note": "[Compound 5]", "values": [{"measurement": "k+3", "setting": "AKR1C2", "value": 7.3, "unit": "M⁻¹ s⁻¹"}, {"measurement": "pKi", "setting": "[2]", "value": 7.18}, {"measurement": "fold less efficient inhibition of AKR1C2 compared to AKR1C1", "value": 2.8, "unit": "fold"}]}, {"smiles": "C1N2CN3CN1CP(C2)C3.Cc1ccc(C(C)C)cc1.F[P-](F)(F)(F)(F)F.O=C(C=C([O][Ru+])c1ccc2c(c1)OCO2)C(F)(F)F", "note": "[Compound 6]", "values": [{"measurement": "k+2", "setting": "AKR1C2", "value": 172, "unit": "M⁻¹ s⁻¹"}, {"measurement": "pKi", "setting": "[1]", "value": 5.08}]}, {"smiles": "Cc1ccc(C(C)C)cc1.[Cl-].[O-]c1c(I)cc(Cl)c2cccnc12.[Ru+2]", "note": "[Compound 7]", "values": [{"measurement": "k+3", "setting": "AKR1C2", "value": 11.1, "unit": "M⁻¹ s⁻¹"}, {"measurement": "pKi", "setting": "[2]", "value": 7.18}]}, {"smiles": "C1N2CN3CN1CP(C2)C3.Cc1ccc(C(C)C)cc1.F[P-](F)(F)(F)(F)F.[O-]c1c(I)cc(Cl)c2cccnc12.[Ru+2]", "note": "[Compound 8]", "values": [{"measurement": "k+2", "setting": "AKR1C2", "value": 929, "unit": "M⁻¹ s⁻¹"}, {"measurement": "pKi", "setting": "[1]", "value": 5.80}]}, {"smiles": "Cc1ccc(C(C)C)cc1.O=[N+]([O-])c1ccc([O][Ru][Cl])c2ncccc12", "note": "[Compound 9, (η ^6-p-Cymene) (nitroxolinato)chloridoruthenium (II)]", "values": [{"measurement": "inhibitory effect (in words)", "setting": "AKR1C2", "value": "very weak inhibitory effect"}, {"measurement": "irreversible inhibition (in words)", "setting": "AKR1C2", "value": "virtually no irreversible inhibition"}, {"measurement": "pKi", "setting": "[1]", "value": 3.72}]}, {"smiles": "C1N2CN3CN1CP(C2)C3.Cc1ccc(C(C)C)cc1.F[P-](F)(F)(F)(F)F.O=[N+]([O-])c1ccc([O][Ru+])c2ncccc12", "note": "[Compound 10, (η ^6-p-cymene)(nitroxolinato)(pta)ruthenium(II) hexafluorophosphate]", "values": [{"measurement": "k+2", "setting": "AKR1C2", "value": 5.1, "unit": "M⁻¹ s⁻¹"}, {"measurement": "pKi", "setting": "[1]", "value": 4.37}]}]}
